From patent US20260232682A1, “GSPT1 DEGRADER COMPOUNDS” (Captor Therapeutics S.A., priority 2023, published 2026)
pKi: −log10 of the molar value.

Key:
[1] = Chemical stability in MV-4-11 medium; conditions: 37° C., concentration 10 μM
Protocol: Next, 500 μL of each solution was transferred to the 96-deep-well plate. Three replicates for each compound were performed. Plate was afterwards incubated at 37° C. with shaking (220 rpm). 50 μL of sample were withdrawn for the each timepoint (0, 1, 3, 6, 24, 48, 72, and 168 hours) and immediately mixed with 50 μL of acetonitrile. Next, samples were centrifuged at 3900 rpm, 10° C. for 20 minutes. 40 μL of supernatant was diluted with 120 μL of acetonitrile containing internal standard (IS) (10 μM), mixed, and analyzed by LC-MS/MS.
Thermo Fisher Scientific Altis+ coupled with a Vanquish system were used for UHPLC-MS/MS analysis. Analytes were separated on a Kinetex XB-C18 2.6 μm, 50×2.1 mm column, using gradient of water with 0.1% (v/v) formic acid (solvent A) and acetonitrile with 0.1% (v/v) formic acid (solvent B): 0.0 min 5% B, 0.5 min 5% B, 1.0 min 70% B, 3.0 min 95% B, 3.5 min 95% B, 3.7 min 5% B, 5 min 5% B. The mobile phase flow rate was set to 0.3 mL/min and the column was kept in 40° C. 1 μL of samples were injected. The MS/MS analysis was performed using SRM mode in positive ionization. Source parameters were set as follow: Ion Source Type H-ESI, Spray Voltage 3800 V, Sheath Gas 50 Arb, Aux Gas 10 Arb, Sweep Gas 1 Arb, Ion Transfer Tube Temp 325° C., Vaporizer Temp 350° C., Collision Gas Pressure 1.5 mTorr, Q1/Q3 Resolution (FWHM) 0.7. Three transitions were monitored for each analyte and for the internal standard:
Quantitation was based on the peak area ratio between the test compound and IS. The amount of compound remaining in the sample was calculated as follow:
The slope of logarithmic curve of percent remaining versus time has been used for calculation of half-life (t_half). First, the elimination constant (k) was calculated using the equation:
Next, half-life (t_half) was calculated using equation:

[2] = molecular target: T1, [IKZF1 ZF2]-[compound]-[CRBN/DDB1] ternary complex (Homo sapiens, UniProt Q13422+Q96SW2); test: AlphaLISA assay for off-target recruitment detection, IKZF1 ZF2; assay type: binding; conditions: 1 μM compound; normalized to Lenalidomide; read-out: Normalized ternary complex response, IKZF1 ZF2
T1 construct: IKZF1 ZF2
Protocol: (§1) The ability of the molecular glue compounds of the invention to mediate the proximity of CRBN with its known neo-substrates (shown in Table 3) was assessed using AlphaLISA to detect the formation of a [neo-substrate]-[compound of formula (I)]-[CRBN/DDB1] ternary complex.
(§2) Two types of protein solution were prepared: • neo-substrate, 40 μg/ml AlphaScreen Donor Beads (Table 3) in PBS (10 mM phosphate buffer, 137 mM NaCL, 2.7 mM KCl, pH 7.4) buffer supplemented with Tween-20 (Table 3) and 1 mM DTT, • 200 nM 6×His-CRBN/DDB1, 40 μg/ml AlphaLISA Anti-6×His Acceptor beads in PBS buffer with Tween-20 (Table 3) and 1 mM DTT.
(§3) The prepared solutions were incubated at room temperature for 30 min and then the solution containing the donor beads was mixed with the solution containing the acceptor beads.
(§4) The tested compounds were dispensed onto a white 384-well AlphaPlate 384 SW. DMSO was backfilled to all wells, resulting in a final DMSO content of 2%. Wells containing only DMSO served as background. Next, 10 μl of solution with donor and acceptor beads was added to the wells.
(§5) The plate was sealed with transparent film and shaken using a VibroTurbulator for 60 sec at room temperature, level 3. The plate was then spun down shortly (10 sec, 1000 rcf, room temperature) and incubated at 25° C. for 30 min.
(§6) The read-out was performed with PerkinElmer Enspire Multimode Plate Reader (method for AlphaLISA 384-well low volume, Filterset: λexc=680 nm, λem=615 nm).
(§7) The results were analyzed as follows: • 1) an average of luminescence for background signal was calculated and used as a negative control; • 2) an average of the maximum measured luminescence for reference compound (Table 3) was calculated and used as an internal positive control; • 3) raw luminescence values were normalized against positive and negative controls; • 4) Normalized responses to reference molecular glue were determined.

[3] = molecular target: T2, [IKZF2 ZF2]-[compound]-[CRBN/DDB1] ternary complex (Homo sapiens, UniProt Q96SW2+Q9UKS7); test: AlphaLISA assay for off-target recruitment detection, IKZF2 ZF2; assay type: binding; conditions: 1 μM compound; normalized to Helios modulator; read-out: Normalized ternary complex response, IKZF2 ZF2
T2 construct: IKZF2 ZF2
Protocol: as §1, §2, §3, §4, §5, §6, §7

[4] = molecular target: T3, [SALL4 ZF2]-[compound]-[CRBN/DDB1] ternary complex (Homo sapiens, UniProt Q96SW2+Q9UJQ4); test: AlphaLISA assay for off-target recruitment detection, SALL4 ZF2; assay type: binding; conditions: 1 μM compound; normalized to Lenalidomide; read-out: Normalized ternary complex response, SALL4 ZF2
T3 construct: SALL4 ZF2
Protocol: as §1, §2, §3, §4, §5, §6, §7

[5] = molecular target: [CK1α]-[compound]-[CRBN/DDB1] ternary complex (Homo sapiens, UniProt P48729+Q96SW2); test: AlphaLISA assay for off-target recruitment detection, CK1α; assay type: binding; conditions: 1 μM compound; normalized to FPFT-2216; read-out: Normalized ternary complex response, CK1α
Protocol: as §1, §2, §3, §4, §5, §6, §7

[6] = molecular target: CRBN/DDB1 protein complex (Homo sapiens, UniProt Q96SW2); test: CRBN displacement TR-FRET assay; conditions: Thalidomide-Red tracer, 6×His-CRBN/DDB1; read-out: CRBN binding Ki
Protocol: CRBN/DDB1 protein complex was mixed with Thalidomide-Red and a compound to be tested (the “test compound”). The test solution contained PPI Europium detection buffer, 1 mM DTT, 6.8 nM Thalidomide-Red (the tracer), 5 nM 6×His-CRBN/DDB1 protein, 0.5 nM Anti-6× His-Eu cryptate, 1% DMSO. The test solution was added to a 384-well assay plate.
The plate was spun-down (1 min, 1000 rpm, 22° C.) and then shaken using a VibroTurbulator for 30 sec at room temperature (20-25° C.), with the frequency set to level 10. The assay plate with protein and the tracer was incubated for 180 min at room temperature (20-25° C.) prior to read-out with a plate reader. The read-out was performed with plate reader (Pherastar, BMG Labtech) in time resolved fluorescence mode. Filter settings: TR 337 665 620.
The CRBN displacement TR-FRET experiment was carried out with various concentrations of the test compounds in order to measure Ki values.
The Ki values of competitive inhibitors were calculated using the equation based on the IC50 values of relationship between compound concentration and measured […], the Kd value of the Thalidomide-Red and CRBN/DDB1 complex, and the concentrations of the protein and the tracer in the displacement assay (as described by Cheng and Prusoff, Biochem Pharmacol 1973; 22:3099-3108).

[7] = molecular target: T4, [GSPT1]-[compound of formula (I)]-[CRBN/DDB1] complex (Homo sapiens, UniProt P15170+Q96SW2); test: HTRF ternary complex assay (GSPT1); assay type: binding; conditions: read-out: HTRF ternary complex Average pEC50 by molecule (converted)
Protocol: The effect of the molecular glue compounds of the invention on the formation of a ternary complex composed of [GSPT1]-[compound of formula (I)]-[CRBN/DDB1] was investigated.
Mix solution of proteins and reagents was prepared: • 48 nM GSPT1, 52.8 nM 6×His-CRBN/DDB1, 3 nM of Streptavidin-Eu cryptate ([…]) and 6.67 nM of Anti-6×his-d2 ([…]) was prepared in PPI Europium detection buffer (purchased from Cisbio) with 1 mM DTT.
The tested compounds in dose-response were dispensed onto a white 384-well low volume plate (Greiner, 784075). DMSO was backfilled to all wells, resulting in a final DMSO content of 0.5%. Wells containing only DMSO served as background.
The plate was sealed with transparent film and shaken using a VibroTurbulator for 60 sec at level 3.
The plate was then spun down shortly (10 sec, 1000 rcf) and incubated at 25° C. for 180 min.
The read-out was performed with plate reader (Pherastar, BMG Labtech) in time resolved fluorescence mode. Filter settings: TR 337 665 620.
The results were analyzed as follows: • 1) an average of fluorescence for background signal was calculated and used as a negative control; • 2) raw fluorescence values for tested compounds were normalized against negative controls; • 3) saturation curve was fitted to specific binding with Hill slope model; • 4) EC50 and pEC50 values were determined.

[8] = molecular target: T4, [GSPT1]-[compound of formula (I)]-[CRBN/DDB1] complex; test: AlphaLISA ternary complex formation assay (GSPT1); assay type: binding; conditions: 0.5 h; 1 μM compound; normalized to reference compound CC-885; read-out: Normalized AlphaLISA ternary complex average signal at 1 μM molecule
Protocol: The effect of the molecular glue compounds of the invention on the formation of a ternary complex composed of [GSPT1]-[compound of formula (I)]-[CRBN/DDB1] was investigated with two methods: AlphaLISA dose response assay or HTRF ternary complex assay.
Two types of protein solution were prepared: • 200 nM biotinylated GSPT1 (Table 3), 40 μg/ml AlphaScreen Streptavidin-coated Donor Beads in HBS (10 mM HEPES, 150 mM NaCL, pH 7.4) buffer with 0.1% Tween-20 and 1 mM DTT, • 200 nM 6×His-CRBN/DDB1, 40 μg/ml AlphaLISA Anti-6×His Acceptor beads in HBS buffer with 0.1% Tween-20 and 1 mM DTT.
as §3, §4, §5, §6
as §7, with “2)” for “2) an”, “(structure shown in Table 3 below)” for “(Table 3)”, “positive control” for “reference molecular glue”

Hep3B, Kelly, KG-1 = test: Growth inhibition of cancer cell lines (summary statement); assay type: cell-based; conditions: hepatocellular carcinoma (Hep3B), neuroblastoma (Kelly), leukemia (KG-1)

T4 sequence (P15170 whole entry): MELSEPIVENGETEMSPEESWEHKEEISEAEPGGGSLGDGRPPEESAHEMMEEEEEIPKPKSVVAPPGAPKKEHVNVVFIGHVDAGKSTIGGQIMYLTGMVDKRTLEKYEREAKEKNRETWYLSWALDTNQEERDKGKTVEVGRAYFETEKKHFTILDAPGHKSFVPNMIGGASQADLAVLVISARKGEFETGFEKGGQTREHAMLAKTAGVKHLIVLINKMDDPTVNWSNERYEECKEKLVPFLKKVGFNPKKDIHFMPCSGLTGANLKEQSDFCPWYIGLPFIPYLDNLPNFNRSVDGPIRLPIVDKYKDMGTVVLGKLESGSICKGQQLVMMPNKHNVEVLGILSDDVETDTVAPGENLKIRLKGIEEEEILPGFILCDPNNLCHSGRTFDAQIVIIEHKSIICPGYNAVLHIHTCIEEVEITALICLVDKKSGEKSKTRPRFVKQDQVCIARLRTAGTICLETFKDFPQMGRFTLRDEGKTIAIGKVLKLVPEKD
T4 sequence (Q96SW2 whole entry): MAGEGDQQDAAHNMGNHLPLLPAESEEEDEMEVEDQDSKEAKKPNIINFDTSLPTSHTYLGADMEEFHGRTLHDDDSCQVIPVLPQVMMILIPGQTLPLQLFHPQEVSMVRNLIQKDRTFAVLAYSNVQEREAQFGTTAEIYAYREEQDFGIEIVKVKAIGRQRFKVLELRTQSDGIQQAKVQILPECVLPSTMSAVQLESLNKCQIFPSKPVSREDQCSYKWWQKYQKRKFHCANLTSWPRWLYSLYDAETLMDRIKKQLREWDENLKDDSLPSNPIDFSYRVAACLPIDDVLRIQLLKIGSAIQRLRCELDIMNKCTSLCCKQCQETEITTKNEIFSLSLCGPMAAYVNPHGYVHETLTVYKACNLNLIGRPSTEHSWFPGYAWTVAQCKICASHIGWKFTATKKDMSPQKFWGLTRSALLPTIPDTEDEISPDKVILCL
T4 sequence (Q16531 whole entry partner): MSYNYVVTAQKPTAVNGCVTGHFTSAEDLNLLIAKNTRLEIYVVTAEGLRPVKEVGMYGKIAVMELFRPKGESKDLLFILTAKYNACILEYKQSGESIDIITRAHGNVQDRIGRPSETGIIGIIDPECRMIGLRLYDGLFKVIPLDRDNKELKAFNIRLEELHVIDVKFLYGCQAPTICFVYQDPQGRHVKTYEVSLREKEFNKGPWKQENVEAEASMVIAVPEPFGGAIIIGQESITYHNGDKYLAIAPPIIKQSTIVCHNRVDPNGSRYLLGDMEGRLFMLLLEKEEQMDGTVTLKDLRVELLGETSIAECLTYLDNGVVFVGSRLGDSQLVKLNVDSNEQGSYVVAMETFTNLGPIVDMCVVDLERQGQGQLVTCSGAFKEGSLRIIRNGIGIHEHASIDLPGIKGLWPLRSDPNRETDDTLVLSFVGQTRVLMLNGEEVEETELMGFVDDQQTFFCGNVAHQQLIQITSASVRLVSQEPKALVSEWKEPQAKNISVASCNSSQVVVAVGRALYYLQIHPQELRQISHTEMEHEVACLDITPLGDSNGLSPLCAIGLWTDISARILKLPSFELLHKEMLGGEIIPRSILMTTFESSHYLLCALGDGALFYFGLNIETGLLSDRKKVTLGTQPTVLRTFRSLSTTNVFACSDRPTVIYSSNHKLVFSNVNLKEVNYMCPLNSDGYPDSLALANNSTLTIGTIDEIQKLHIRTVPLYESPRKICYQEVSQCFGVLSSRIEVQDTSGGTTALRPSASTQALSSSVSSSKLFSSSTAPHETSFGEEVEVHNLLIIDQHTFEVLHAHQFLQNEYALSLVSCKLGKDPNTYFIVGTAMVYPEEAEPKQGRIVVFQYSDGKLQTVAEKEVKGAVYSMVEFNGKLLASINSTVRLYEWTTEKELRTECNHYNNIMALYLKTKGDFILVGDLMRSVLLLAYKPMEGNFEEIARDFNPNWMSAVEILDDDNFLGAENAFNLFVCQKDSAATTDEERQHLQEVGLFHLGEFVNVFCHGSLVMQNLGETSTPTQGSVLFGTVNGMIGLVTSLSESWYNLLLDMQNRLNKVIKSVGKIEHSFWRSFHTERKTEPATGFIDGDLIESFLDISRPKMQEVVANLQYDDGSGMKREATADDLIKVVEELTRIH
CRBN/DDB1 protein complex, sequence (Q96SW2 whole entry, species assumed): as the sequence (Q96SW2 whole entry) above
CRBN/DDB1 protein complex, sequence (Q16531 whole entry partner, species assumed): as the sequence (Q16531 whole entry partner) above
[CK1α]-[compound]-[CRBN/DDB1] ternary complex, sequence (P48729 whole entry): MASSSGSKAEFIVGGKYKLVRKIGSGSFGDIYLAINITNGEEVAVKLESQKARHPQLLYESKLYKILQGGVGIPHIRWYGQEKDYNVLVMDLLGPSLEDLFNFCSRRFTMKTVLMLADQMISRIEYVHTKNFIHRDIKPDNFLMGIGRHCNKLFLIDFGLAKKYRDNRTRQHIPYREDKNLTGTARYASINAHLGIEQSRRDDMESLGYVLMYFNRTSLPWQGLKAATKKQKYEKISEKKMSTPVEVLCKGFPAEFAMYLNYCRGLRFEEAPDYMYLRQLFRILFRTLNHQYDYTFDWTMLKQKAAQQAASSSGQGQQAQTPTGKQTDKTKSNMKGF
[CK1α]-[compound]-[CRBN/DDB1] ternary complex, sequence (Q96SW2 whole entry): as the sequence (Q96SW2 whole entry) above
[CK1α]-[compound]-[CRBN/DDB1] ternary complex, sequence (Q16531 whole entry partner): as the sequence (Q16531 whole entry partner) above
T1 sequence (Q13422 145-167 limits assumed): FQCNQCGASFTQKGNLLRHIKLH
T1 sequence (Q96SW2 whole entry): as the sequence (Q96SW2 whole entry) above
T1 sequence (Q16531 whole entry partner): as the sequence (Q16531 whole entry partner) above
T2 sequence (Q9UKS7 140-162 limits assumed): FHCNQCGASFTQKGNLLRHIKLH
T2 sequence (Q96SW2 whole entry): as the sequence (Q96SW2 whole entry) above
T2 sequence (Q16531 whole entry partner): as the sequence (Q16531 whole entry partner) above
T3 sequence (Q9UJQ4 410-432 limits assumed): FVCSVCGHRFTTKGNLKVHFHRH
T3 sequence (Q96SW2 whole entry): as the sequence (Q96SW2 whole entry) above
T3 sequence (Q16531 whole entry partner): as the sequence (Q16531 whole entry partner) above

Row | Compound | % remaining at 24 hrs [1] | t_half [hours] [1] | activation at 1 µM [2] | activation at 1 µM [3] | activation at 1 µM [4] | activation at 1 µM [5] | pKi [6] | EC50 [7] | activation at 1 µM [8] | inhibition of growth of cancer types (Hep3B, Kelly, KG-1)
1 | Nc1cccc2c1CN(C1CCC(=O)NC1=O)C2=O (centres unmarked) [lenalidomide] | e (e<5%) | D (D<5 hrs) | – | – | – | – | – | – | – | inactive
2 | O=C1CCC(N2Cc3cc(CNC(=O)C(F)(F)c4ccc(Cl)cc4)ccc3C2=O)C(=O)N1 (centres unmarked) [eragidomide] | – | D (D<5 hrs) | – | – | – | – | – | – | – | –

Now from value to molecule, other results behind:

Row | % remaining at 24 hrs [1] | t_half [hours] [1] | activation at 1 µM [2] | activation at 1 µM [3] | activation at 1 µM [4] | activation at 1 µM [5] | pKi [6] | EC50 [7] | activation at 1 µM [8] | Compound | inhibition of growth of cancer types (Hep3B, Kelly, KG-1)
3 | d (5%≤d<10%) | C (5 hrs≤C<10 hrs) | – | – | – | – | – | – | – | Cc1nc2cccc(N)c2c(=O)n1C1CCC(=O)NC1=O (centres unmarked) [avadomide] | –
4 | – | – | 25 to 50% | < 10% | ≥ 50% | < 10% | > 6.30 | > 3160 nM | 10 to 50% | Cc1nc2ccc(COC(=O)Nc3cc(OC(F)(F)F)ccc3F)cc2cc1C1CCC(=O)NC1=O (centres unmarked) [Compound 7, (3-(2,6-dioxopiperidin-3-yl)-2-methylquinolin-6-yl)methyl (2-fluoro-5-(trifluoromethoxy)phenyl)carbamate] | –
5 | – | – | < 10% | < 10% | < 10% | < 10% | < 6.00 | > 3160 nM | 10 to 50% | Cc1ccc(Nc2c(NCc3ccc4cc(C5CCC(=O)NC5=O)c(C)nc4c3)c(=O)c2=O)cc1Cl (centres unmarked) [Compound 3, 3-(7-(((2-((3-chloro-4-methylphenyl)amino)-3,4-dioxocyclobut-1-en-1-yl)amino)methyl)-2-methylquinolin-3-yl)piperidine-2,6-dione] | –
6 | e (e<5%) | D (D<5 hrs) | – | – | – | – | – | – | – | Nc1cccc2c1C(=O)N(C1CCC(=O)NC1=O)C2=O (centres unmarked) [pomalidomide] | inactive
